Assay results: PMC9882114 (bioRxiv, 2024)

Assays:
Format in all cases: biochemical
[1] = system: iNicSnFR12; assay: Fluorescence dose-response relations of nicotinic drugs at purified iNicSnFR12
[2] = system: iNicSnFR11; assay: Fluorescence dose-response relations of nicotinic drugs at purified iNicSnFR11; conditions: purified iNicSnFR11 100 nM, 3×PBS pH 7.40, Hill fit
[3] = system: iNicSnFR12; conditions: read-out: EC50, μM (Figure 1B, 1C, purified sensors); n = 3
[4] = system: iNicSnFR12-S467R; assay: Nicotine-induced fluorescence increase of purified iNicSnFR12-S467R, Hill fit; conditions: read-out: EC50 (nicotine-induced fluorescence, iNicSnFR12-S467R); SEM, n = 3

EC50 [4] [µM] | Structure (SMILES) | expected activation at iNicSnFR12 ([1]; [choline] 1 μM as in 10% rat serum) | expected activation at iNicSnFR12 ([1]; [choline] 2.5 μM as in 25% human serum) [%] | EC50 [2] [µM] | EC50 [3] [µM]
 | C[N+](C)(C)CCO [choline] | at most 1% | ≤ 2.5 | ~170 | ≥ 100
25.6 | CN1CCC[C@H]1c1cccnc1 [nicotine] |  |  |  | 
